The record followed here is ChEMBL document CHEMBL2424537, “Design, synthesis, biological evaluation and docking study of 5-oxo-4,5-dihydropyrano[3,2-c]chromene derivatives as acetylcholinesterase and butyrylcholinesterase inhibitors” (Eur J Med Chem, 2013).

Experiment [1] in a line: Selectivity ratio of IC50 for equine serum BChE to IC50 for electric eel AChE.
The target of experiment [2] is Cholinesterase (Equus caballus, UniProt P81908). The experiment can be described thus: Inhibition of equine serum BChE using butyrylthiocholine iodide as substrate after 2 mins by Ellman's method. For orientation: Ellman's reagent forms a yellow product with free thiols.
Experiment [3] addresses Acetylcholinesterase (Electrophorus electricus, UniProt O42275).
Description: Inhibition of electric eel AChE using acetylthiocholine iodide as substrate after 2 mins by Ellman's method

Sequence of Acetylcholinesterase (O42275 whole entry): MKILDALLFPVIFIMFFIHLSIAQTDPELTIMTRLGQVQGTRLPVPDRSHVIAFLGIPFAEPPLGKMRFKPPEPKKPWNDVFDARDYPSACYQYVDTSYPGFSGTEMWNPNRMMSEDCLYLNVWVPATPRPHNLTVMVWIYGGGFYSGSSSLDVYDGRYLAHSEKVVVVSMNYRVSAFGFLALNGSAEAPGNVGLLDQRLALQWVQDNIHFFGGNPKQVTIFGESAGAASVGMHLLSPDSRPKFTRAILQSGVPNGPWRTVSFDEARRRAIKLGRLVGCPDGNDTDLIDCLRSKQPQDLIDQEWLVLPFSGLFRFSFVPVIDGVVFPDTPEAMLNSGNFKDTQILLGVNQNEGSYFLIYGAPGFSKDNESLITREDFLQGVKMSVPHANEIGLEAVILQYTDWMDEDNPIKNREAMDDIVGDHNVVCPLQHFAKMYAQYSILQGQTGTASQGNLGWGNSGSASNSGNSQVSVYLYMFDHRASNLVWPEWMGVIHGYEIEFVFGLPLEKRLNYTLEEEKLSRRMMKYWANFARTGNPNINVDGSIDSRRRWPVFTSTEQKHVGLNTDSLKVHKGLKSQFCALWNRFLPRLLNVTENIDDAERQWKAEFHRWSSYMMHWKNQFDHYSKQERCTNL
Sequence of Cholinesterase (P81908 whole entry): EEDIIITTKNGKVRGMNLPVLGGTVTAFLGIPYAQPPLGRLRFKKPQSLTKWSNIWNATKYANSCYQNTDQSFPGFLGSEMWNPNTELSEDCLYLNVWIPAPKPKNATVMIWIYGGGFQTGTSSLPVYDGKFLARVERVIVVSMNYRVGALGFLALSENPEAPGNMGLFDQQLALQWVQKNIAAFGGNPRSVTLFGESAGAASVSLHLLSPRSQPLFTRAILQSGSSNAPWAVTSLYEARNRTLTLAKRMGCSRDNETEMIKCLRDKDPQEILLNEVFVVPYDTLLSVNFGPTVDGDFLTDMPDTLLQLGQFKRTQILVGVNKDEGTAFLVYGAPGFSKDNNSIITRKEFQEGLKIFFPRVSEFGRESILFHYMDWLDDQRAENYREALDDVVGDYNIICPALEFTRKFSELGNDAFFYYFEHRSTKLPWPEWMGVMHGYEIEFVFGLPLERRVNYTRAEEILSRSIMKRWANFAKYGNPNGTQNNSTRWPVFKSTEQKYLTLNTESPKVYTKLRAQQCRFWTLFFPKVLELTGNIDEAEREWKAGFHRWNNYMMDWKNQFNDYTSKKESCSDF

Turning to `N#CC1=C(N)Oc2c(c(=O)oc3ccccc23)C1c1cc[n+](Cc2ccccc2F)cc1` (stereo not given), in experiment [1], the Ratio IC50 came to 12.4. Further, the IC50 – broadly, the concentration that inhibits the measured activity by half – in experiment [2] was 36 µM; in experiment [3], 2900 nM.

For `N#CC1=C(N)Oc2c(c(=O)oc3ccccc23)C1c1cc[n+](Cc2ccccc2Cl)cc1` (stereo not given), in experiment [1], the Ratio IC50 is 3.2. In addition, the IC50 in experiment [2] is 4.8 µM; in experiment [3] it was 1500 nM.

On to `Cc1cccc(C[n+]2cccc(C3C(C#N)=C(N)Oc4c3c(=O)oc3ccccc43)c2)c1` (stereo not given), for which the Ratio IC50 in experiment [1] worked out at 18.1. For the same molecule, the half-inhibitory concentration (IC50) in experiment [2] came to 14.3 µM; in experiment [3], 790 nM.

With `N#CC1=C(N)Oc2c(c(=O)oc3ccccc23)C1c1ccc[n+](Cc2ccc(F)cc2)c1` (stereo not given), the Ratio IC50 in experiment [1] was determined as 1. In addition, the IC50 worked out at 2.17 µM in experiment [2] and 2170 nM in experiment [3].

Take `N#CC1=C(N)Oc2c(c(=O)oc3ccccc23)C1c1ccc[n+](Cc2ccccc2Cl)c1` (stereo not given): the Ratio IC50 in experiment [1] turned out to be 11.2. For the same molecule, the IC50 in experiment [2] amounted to 11.2 µM; in experiment [3], 1000 nM.

As for `N#CC1=C(N)Oc2c(c(=O)oc3ccccc23)C1c1cc[n+](Cc2cccc(Cl)c2)cc1` (stereo not given), the Ratio IC50 in experiment [1] came out at 45.4. Besides, the concentration for half-maximal inhibition (IC50) in experiment [2] stood at 21.8 µM; in experiment [3], 480 nM.

Consider `N#CC1=C(N)Oc2c(c(=O)oc3ccccc23)C1c1ccc[n+](Cc2ccccc2F)c1` (stereo not given), for which the Ratio IC50 in experiment [1] is 22.8. The figures for the IC50 in experiment [2] and in experiment [3] were 41 µM and 1800 nM, respectively.

As to `N#CC1=C(N)Oc2c(c(=O)oc3ccccc23)C1c1ccc[n+](Cc2cccc(F)c2)c1` (stereo not given), in experiment [1], the Ratio IC50 is > 25. The IC50 was > 50 µM in experiment [2] and 2000 nM in experiment [3].

As to `Cc1cccc(C[n+]2ccc(C3C(C#N)=C(N)Oc4c3c(=O)oc3ccccc43)cc2)c1` (stereo not given), the Ratio IC50 in experiment [1] worked out at 2.6. The results for the IC50 in experiment [2] and in experiment [3] were 5.5 µM and 1900 nM, respectively.

As to `N#CC1=C(N)Oc2c(c(=O)oc3ccccc23)C1c1cc[n+](Cc2ccc(F)cc2)cc1` (stereo not given), the Ratio IC50 in experiment [1] was 48.4. The figures for the IC50 in experiment [2] and in experiment [3] were 1.84 µM and 38 nM, respectively.

As to `Cc1ccccc1C[n+]1ccc(C2C(C#N)=C(N)Oc3c2c(=O)oc2ccccc32)cc1` (stereo not given), in experiment [1], the Ratio IC50 came to 4.8. The IC50 is 17.8 µM in experiment [2] and 3700 nM in experiment [3].

In the case of `N#CC1=C(N)Oc2c(c(=O)oc3ccccc23)C1c1cc[n+](Cc2ccc(Cl)cc2Cl)cc1` (stereo not given), the Ratio IC50 in experiment [1] is 0.68. Also, the IC50 came out at 0.566 µM in experiment [2] and 831 nM in experiment [3].

`N#CC1=C(N)Oc2c(c(=O)oc3ccccc23)C1c1ccc[n+](Cc2cccc(Cl)c2)c1` (stereo not given): the Ratio IC50 in experiment [1] was 5.2. The figures for the IC50 in experiment [2] and in experiment [3] were 38.4 µM and 7400 nM, respectively.

For `N#CC1=C(N)Oc2c(c(=O)oc3ccccc23)C1c1cc[n+](Cc2cccc(F)c2)cc1` (stereo not given), in experiment [1], the Ratio IC50 is > 17.8. In addition, the results for the IC50 in experiment [2] and in experiment [3] were > 50 µM and 2800 nM, respectively.

For `N#CC1=C(N)Oc2c(c(=O)oc3ccccc23)C1c1cc[n+](Cc2ccc(Cl)c(Cl)c2)cc1` (stereo not given), the Ratio IC50 in experiment [1] was 28.9. For the same molecule, the IC50 is 1.27 µM in experiment [2] and 44 nM in experiment [3].
